# Reference: paper PMC5775417 (Scientific Reports, 2018)
# Several values for one entry are separate records, joined by “and”; a condition that tells them apart may be missing. Equal values may be shown once. Entries after “also recorded” stand apart in the source; their conditions may differ. Read-outs that look alike come from different tables or passages of the source.
# Key:
# D80^2.50A c-myc-D2LR = target: T1, D80^2.50A c-myc-D2LR (Homo sapiens, UniProt P14416, D80A); experiment: [3H]spiperone competition binding, membranes of Flp-In CHO cells; conditions: for Ki / logα (logarithm of the cooperativity factor between the modulator and [3H]spiperone) / α (cooperativity factor with [3H]spiperone) / Kb: D80A; for Ki: 100 µM GppNHp; for Kb: allosteric ternary complex model
# T1 construct: expressed in transfected cells
# Method: (§1) Flp-In CHO cells (Invitrogen) were transfected with the pOG44 vector encoding Flp recombinase and the pDEST vector encoding the wild-type or mutant c-Myc-D2LR at a ratio of 9:1 using polyethylenimine (Polysciences, Warrington, PA) as transfection reagent. 24 hours after transfection the cells were subcultured and the medium was supplemented with 700 μg/ml hygromycin B as selection agent to obtain cells stably expressing the c-Myc-D2LR. FlpIn CHO cells stably expressing the wild-type or mutant c-Myc-D2LR were grown in Dulbecco’s modified Eagle’s medium (DMEM) supplemented with 10% fetal bovine serum and 200 µg/mL of Hygromycin-B, and maintained at 37 °C in a humidified incubator containing 5% CO2. When cells were approximately 90% confluent, they were harvested and centrifuged (300 g, 3 min, 4 °C). The resulting pellet was resuspended in assay buffer either in the presence (20 mM HEPES, 100 mM NaCl, 6 mM MgCl2, 1 mM EGTA, and 1 mM EDTA, pH 7.4) or absence (20 mM HEPES, 100 mM NMDG, 6 mM MgCl2, 1 mM EGTA, and 1 mM EDTA, pH 7.4) of sodium ions. The centrifugation procedure was repeated. The intact cell pellet was then resuspended in assay buffer and homogenized using a Polytron homogenizer for three 10 s intervals on the maximum setting, with 30 s periods on ice between each burst. The homogenate volume was brought up to 30 mL, the sample was centrifuged (350 g, 5 min, 4 °C), the pellet was discarded, and the supernatant was centrifuged at 30 000 g for 1 hr at 4 °C. The resulting pellet was resuspended in 5 mL of assay buffer, and the protein content was determined using the bicinchoninic acid assay (BCA assay). The homogenate was then separated into 500 µl aliquots and stored at −80 °C until it was required for binding assays.
# (§2) Binding was terminated by fast-flow filtration over GF/B membranes using a Brandel harvester followed by three washes with ice-cold 0.9% NaCl. Bound radioactivity was measured in a Tri-Carb 2900TR liquid scintillation counter (PerkinElmer).
# (§3) Values of α > 1 denote positive cooperativity, values < 1 (but > 0) denote negative cooperativity and values = 1 denote neutral cooperativity.
# (§4) IC50 values obtained from the inhibition curves were converted to Ki values using the Cheng and Prusoff equation[35].
# E95^2.65A c-myc-D2LR = target: T2, E95^2.65A c-myc-D2LR (Homo sapiens, UniProt P14416, E95A); experiment: as above; conditions: for Ki / α (cooperativity factor with [3H]spiperone) / logα (logarithm of the cooperativity factor between the modulator and [3H]spiperone) / Kb: E95A; for Ki: 100 µM GppNHp; for fold decrease in affinity at E95A mutant in the absence of Na+ vs E95A in the presence of Na+: 100 mM NMDG vs 100 mM NaCl; for Kb: allosteric ternary complex model
# T2 construct: expressed in transfected cells
# Method: as §1, §2, §3, §4
# WT c-myc-D2LR = target: T3, WT c-myc-D2LR (Homo sapiens, UniProt P14416); experiment: as above; conditions: for fold loss in affinity in the absence of Na+ vs presence of Na+: WT D2LR, 100 mM NMDG vs 100 mM NaCl; for Ki / α (cooperativity factor with [3H]spiperone) / logα (logarithm of the cooperativity factor between the modulator and [3H]spiperone) / Kb: WT
# T3 construct: expressed in transfected cells
# Method: as §1, §2, §3, §4
# [1] = system: D2R Tyr^7.43 to cysteine mutant; conditions: cited from earlier work
# [2] = 100 mM NMDG (no Na+), 0.15 nM [3H]spiperone, read-out: Ki (converted)
# [3] = 100 mM NaCl, 0.15 nM [3H]spiperone, read-out: Ki (converted)
# [4] = 100 mM NaCl, 0.15 nM [3H]spiperone, read-out: pKi (converted)
# [5] = 100 mM NMDG (no Na+), 0.15 nM [3H]spiperone, 100 µM GppNHp, read-out: pKi (converted)
# [6] = 100 mM NaCl, 0.15 nM [3H]spiperone, 100 µM GppNHp, read-out: pKi (converted)
# [7] = 100 mM NMDG (no Na+), 0.15 nM [3H]spiperone
# [8] = 100 mM NaCl, 0.15 nM [3H]spiperone
# [9] = 100 mM NMDG (no Na+), 0.15 nM [3H]spiperone, ND = no inhibition of [3H]spiperone binding detected
# [10] = 100 mM NaCl, 0.5 nM [3H]spiperone
# [11] = 100 mM NMDG (no Na+), 0.5 nM [3H]spiperone
# T1 sequence (P14416 whole entry D80A): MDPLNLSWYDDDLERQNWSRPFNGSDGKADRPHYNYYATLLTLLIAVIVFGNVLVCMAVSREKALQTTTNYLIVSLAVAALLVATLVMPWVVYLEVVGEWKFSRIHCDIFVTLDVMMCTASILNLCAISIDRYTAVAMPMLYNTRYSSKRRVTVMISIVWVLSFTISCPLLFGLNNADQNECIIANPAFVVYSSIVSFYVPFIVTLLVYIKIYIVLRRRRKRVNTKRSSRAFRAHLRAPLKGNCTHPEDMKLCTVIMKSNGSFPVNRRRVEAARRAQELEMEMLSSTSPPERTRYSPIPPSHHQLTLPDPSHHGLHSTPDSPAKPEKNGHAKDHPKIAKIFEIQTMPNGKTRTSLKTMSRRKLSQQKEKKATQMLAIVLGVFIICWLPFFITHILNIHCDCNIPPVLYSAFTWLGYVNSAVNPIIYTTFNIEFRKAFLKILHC
# T3 sequence (P14416 whole entry): as the sequence (P14416 whole entry D80A) above, with A80D counted along it
# T2 sequence (P14416 whole entry E95A): as the sequence (P14416 whole entry D80A) above, with A80D, E95A counted along it
structure (smiles),measurement,setting,value
"CCCN1CCc2ccc(C#N)cc2C1 [MIPS1071, 2-propyl-1,2,3,4-tetrahydroisoquinoline-7-carbonitrile]",fold loss in affinity at D80A mutant vs WT,D80^2.50A c-myc-D2LR; 100 mM NaCl,7 fold
same,Ki,D80^2.50A c-myc-D2LR; [2],7200 nM
same,Ki,D80^2.50A c-myc-D2LR; [3],9300 nM
same,Ki,E95^2.65A c-myc-D2LR; [2],7600 nM
same,Ki,E95^2.65A c-myc-D2LR; [4],1260 nM
same,fold loss in affinity at E95A mutant vs WT,E95^2.65A c-myc-D2LR; absence of Na+ (100 mM NMDG),not changed
same,fold loss in affinity at E95A mutant vs WT,E95^2.65A c-myc-D2LR; presence of Na+ (100 mM NaCl),not changed
same,fold loss in affinity in the absence of Na+ vs presence of Na+,WT c-myc-D2LR,9 fold
same,Ki,WT c-myc-D2LR; [5],12000 nM
same,Ki,WT c-myc-D2LR; [6],1260 nM
N#Cc1ccc2c(c1)CN(CC[C@H]1CC[C@H](NC(=O)c3cc4cccc(F)c4[nH]3)CC1)CC2 [MIPS1868],fold loss in affinity at D80A mutant vs WT,D80^2.50A c-myc-D2LR; 100 mM NaCl,6 fold
same,logα (logarithm of the cooperativity factor between the modulator and [3H]spiperone),D80^2.50A c-myc-D2LR; [7],−0.87 ± 0.12
same,α (cooperativity factor with [3H]spiperone),D80^2.50A c-myc-D2LR; [7],0.13
same,Kb,D80^2.50A c-myc-D2LR; [7],468 nM
same,α (cooperativity factor with [3H]spiperone),D80^2.50A c-myc-D2LR; [8],0.23
same,logα (logarithm of the cooperativity factor between the modulator and [3H]spiperone),"D80^2.50A c-myc-D2LR; 100 mM NaCl, 0.15 nM [3H]spiperone, ND = no inhibition of [3H]spiperone binding detected",−0.62 ± 0.06
same,Kb,D80^2.50A c-myc-D2LR; [8],631 nM
same,fold loss of negative cooperativity at D80A mutant vs WT,D80^2.50A c-myc-D2LR; cooperativity with [3H]spiperone,4 fold and 6 fold
same,fold by which the WT vs E95A difference in affinity is greater in the presence of Na+ than in the absence of Na+,E95^2.65A c-myc-D2LR,2 fold
same,fold decrease in affinity at E95A mutant in the absence of Na+ vs E95A in the presence of Na+,E95^2.65A c-myc-D2LR,3 fold
same,α (cooperativity factor with [3H]spiperone),E95^2.65A c-myc-D2LR; [7],0.06
same,logα (logarithm of the cooperativity factor between the modulator and [3H]spiperone),E95^2.65A c-myc-D2LR; [9],−1.24 ± 0.16
same,Kb,E95^2.65A c-myc-D2LR; [7],617 nM
same,logα (logarithm of the cooperativity factor between the modulator and [3H]spiperone),E95^2.65A c-myc-D2LR; [8],−1.39 ± 0.11
same,α (cooperativity factor with [3H]spiperone),E95^2.65A c-myc-D2LR; [8],0.04
same,Kb,E95^2.65A c-myc-D2LR; [8],212 nM
same,fold loss in affinity at E95A mutant vs WT,E95^2.65A c-myc-D2LR; absence of Na+ (100 mM NMDG),no significant difference; also recorded: no additional effect
same,fold loss in affinity at E95A mutant vs WT,E95^2.65A c-myc-D2LR; presence of Na+ (100 mM NaCl),2 fold
same,fold loss in affinity in the absence of Na+ vs presence of Na+,WT c-myc-D2LR,6 fold and 5 fold
same,α (cooperativity factor with [3H]spiperone),WT c-myc-D2LR; [7],0.03
same,logα (logarithm of the cooperativity factor between the modulator and [3H]spiperone),WT c-myc-D2LR; [9],−1.48 ± 0.12
same,Kb,"WT c-myc-D2LR; 100 mM NMDG (no Na+), allosteric ternary complex model, 0.15 nM [3H]spiperone, read-out: KB (converted)",631 nM
same,logα (logarithm of the cooperativity factor between the modulator and [3H]spiperone),WT c-myc-D2LR; [8],−1.45 ± 0.12
same,α (cooperativity factor with [3H]spiperone),WT c-myc-D2LR; [8],0.04
same,Kb,"WT c-myc-D2LR; 100 mM NaCl, allosteric ternary complex model, 0.15 nM [3H]spiperone, read-out: KB (converted)",100 nM
N#Cc1ccc2c(c1)CN(CC[C@H]1CC[C@H](NC(=O)c3cc4ccncc4[nH]3)CC1)CC2 [MIPS1726],fold loss in affinity at D80A mutant vs WT,D80^2.50A c-myc-D2LR; 100 mM NaCl,> 10 fold
same,logα (logarithm of the cooperativity factor between the modulator and [3H]spiperone),D80^2.50A c-myc-D2LR; [10],−2.13 ± 0.27
same,α (cooperativity factor with [3H]spiperone),D80^2.50A c-myc-D2LR; [10],0.007
same,Kb,D80^2.50A c-myc-D2LR; [10],316 nM
same,fold by which the WT vs E95A difference in affinity is greater in the presence of Na+ than in the absence of Na+,E95^2.65A c-myc-D2LR,2 fold
same,fold decrease in affinity at E95A mutant in the absence of Na+ vs E95A in the presence of Na+,E95^2.65A c-myc-D2LR,7 fold
same,logα (logarithm of the cooperativity factor between the modulator and [3H]spiperone),E95^2.65A c-myc-D2LR; [11],−1.89 ± 0.31
same,α (cooperativity factor with [3H]spiperone),E95^2.65A c-myc-D2LR; [11],0.01
same,Kb,E95^2.65A c-myc-D2LR; [11],812 nM
same,logα (logarithm of the cooperativity factor between the modulator and [3H]spiperone),E95^2.65A c-myc-D2LR; [10],−1.91 ± 0.12
same,α (cooperativity factor with [3H]spiperone),E95^2.65A c-myc-D2LR; [10],0.01
same,Kb,E95^2.65A c-myc-D2LR; [10],123 nM
same,fold loss in affinity at E95A mutant vs WT,E95^2.65A c-myc-D2LR; absence of Na+ (100 mM NMDG),2 fold
same,fold loss in affinity at E95A mutant vs WT,E95^2.65A c-myc-D2LR; presence of Na+ (100 mM NaCl),4 fold
same,Kb,"WT c-myc-D2LR; 0.15 nM [3H]spiperone, radioligand completely displaced, read-out: pKB (converted)",9.77 nM
same,logα (logarithm of the cooperativity factor between the modulator and [3H]spiperone),WT c-myc-D2LR; [11],−2.26 ± 0.39
same,α (cooperativity factor with [3H]spiperone),WT c-myc-D2LR; [11],0.005
same,Kb,"WT c-myc-D2LR; 100 mM NMDG (no Na+), allosteric ternary complex model, 0.5 nM [3H]spiperone, read-out: KB (converted)",398 nM
same,logα (logarithm of the cooperativity factor between the modulator and [3H]spiperone),WT c-myc-D2LR; [10],−1.90 ± 0.08
same,α (cooperativity factor with [3H]spiperone),WT c-myc-D2LR; [10],0.01
same,Kb,"WT c-myc-D2LR; 100 mM NaCl, allosteric ternary complex model, 0.5 nM [3H]spiperone, read-out: KB (converted)",30 nM and 30.2 nM
CCN1CCCC1CNC(=O)c1cc(S(N)(=O)=O)ccc1OC (stereo not shown) [sulpiride],fold decrease in affinity upon mutation of Tyr^7.43 to cysteine,[1],185 fold
CN1CN(c2ccccc2)C2(CCN(CCCC(=O)c3ccc(F)cc3)CC2)C1=O [N-methyl-spiperone],fold decrease in affinity upon mutation of Tyr^7.43 to cysteine,[1],3 fold
"CC(=O)N[C@H]1CC[C@H](CCN2CCc3ccc(C#N)cc3C2)CC1 [MIPS1059, N-((trans)-4-(2-(7-cyano-3,4-dihydroisoquinolin-2(1H)yl)ethyl)cyclohexyl)acetamide]",fold loss in affinity at D80A mutant vs WT,D80^2.50A c-myc-D2LR; 100 mM NaCl,5 fold
same,Ki,"D80^2.50A c-myc-D2LR; 100 mM NMDG (no Na+), 0.15 nM [3H]spiperone, read-out: pKi (converted)",1480 nM
same,Ki,D80^2.50A c-myc-D2LR; [3],1500 nM
same,Ki,D80^2.50A c-myc-D2LR; [4],1510 nM
same,fold by which the WT vs E95A difference in affinity is greater in the presence of Na+ than in the absence of Na+,E95^2.65A c-myc-D2LR,2 fold
same,fold decrease in affinity at E95A mutant in the absence of Na+ vs E95A in the presence of Na+,E95^2.65A c-myc-D2LR,5 fold
same,Ki,E95^2.65A c-myc-D2LR; [2],4800 nM
same,Ki,E95^2.65A c-myc-D2LR; [3],1200 nM
same,Ki,E95^2.65A c-myc-D2LR; [4],1150 nM
same,fold loss in affinity at E95A mutant vs WT,E95^2.65A c-myc-D2LR; absence of Na+ (100 mM NMDG),3 fold
same,fold loss in affinity at E95A mutant vs WT,E95^2.65A c-myc-D2LR; presence of Na+ (100 mM NaCl),5 fold
same,fold loss in affinity in the absence of Na+ vs presence of Na+,WT c-myc-D2LR,6 fold
same,Ki,WT c-myc-D2LR; [5],1740 nM
same,Ki,WT c-myc-D2LR; [6],275 nM
same,Ki,"WT c-myc-D2LR; 100 mM NaCl, complete displacement of [3H]spiperone, read-out: Ki",275 nM
